Converted amounts (≈) assume the structure as drawn. “Also recorded” adds a separate entry of the source. Counter-ions that a name gives are not always drawn.
Columns and labels:
[1] = test system: rice blast fungus (Pyricularia oryzae); assay: whole plant or invertebrate; type: in vivo; conditions: 168 h, read-out: Protective Value
[2] = test system: influenza virus, Adachi strain of A2-type; assay: microbe, parasite or virus in culture; type: cell-based; conditions: for virus proliferation-inhibiting index: 50% toxicity concentration / 50% virus proliferation-inhibiting concentration, 2880 min; for IC50: 48 h, read-out: 50% Virus Proliferation-Inhibiting Concentration
in vitro = conditions: chicken, chorioallantoic membrane
[3] = acute toxicity (LD50) by intraperitoneal administration to mice; conditions: mouse, in vivo, ip
Excerpt: In evaluating acute toxicity (LD50 value) of the compounds of this invention, compound number 4 and compound number 25 of Table 1, respectively, were selected and examined for their acute toxicities by intraperitoneal administration to mice.

[4] = test system: influenza virus, Adachi strain of A2-type; assay: microbe, parasite or virus in culture; type: cell-based; conditions: for virucidal index: 50% toxicity concentration / 50% virucidal concentration; for EC50: 2 h, read-out: 50% Virucidal Concentration
[5] = test system: rice blast fungus (Pyricularia oryzae); type: in vivo; conditions: low dosage; for Protective Value: 100 ppm; for controlling effect against rice blast: Table 4
plant pathogenic fungi = conditions: foregoing literature; cited from earlier work
Pyricularia oryzae = conditions: Bokin Bobai, Vol. 9, No. 12, pages 551 to 561 (1981); cited from earlier work

Compound	pest or weed control at 400 ppm [1]	virus proliferation-inhibiting index [2]	IC50 [2]	CC50 at 48 h (in vitro)	further results
CSC(=N)NN=C(C)c1ccc(O)cc1 [Compound 34]	93%				
CSC(=N)NN=C(C)c1ccccc1 [Compound 21]	100%	12.6	12.5 µg/mL (≈ 60.3 µM)	158 µg/mL (≈ 760 µM)	
CSC(=N)NN=Cc1cccc(Cl)c1 [Compound 4]	100%	> 54.0	18.5 µg/mL (≈ 81.2 µM)	> 1000 µg/mL	LD50 [3]: 200 mg/kg; virucidal index [4]: 5.7; EC50 [4]: 175 µg/mL (≈ 768 µM)
CCOc1ccc(C=NNC(=N)SC)cc1 [Compound 18]	100%				Protective Value [5]: 99%; controlling effect against rice blast [5]: very excellent controlling effects; effect against plant pathogenic fungi in vitro (plant pathogenic fungi): never been observed to have effects of inhibiting proliferation of any of the pathogenic fungi
NC12CC3CC(CC(C3)C1)C2 [Am, Adamantaneamine Hydrochloride, reference compound]		30.4	32.9 µg/mL	1000 µg/mL	virucidal index [4]: 1.5; EC50 [4]: 649 µg/mL
CSC(=N)NN=C(C)c1ccc(Cl)cc1 [Compound 25]	100%	24.6	14.4 µg/mL (≈ 59.6 µM)	354 µg/mL (≈ 1470 µM)	LD50 [3]: 150 mg/kg; virucidal index [4]: 1.7; EC50 [4]: 215 µg/mL (≈ 889 µM)
CSC(=N)NN=Cc1ccccc1 [Compound 1]	90%				
CCCCCOc1ccc(C(C)=NNC(=N)SCCCC)cc1 [Compound 39]	100%				
CCCCCOc1ccc(C(C)=NNC(=N)SC)cc1 [Compound 38]	100%	> 8.0	126 µg/mL (≈ 429 µM)	> 1000 µg/mL	effect against plant pathogenic fungi in vitro (plant pathogenic fungi): inactive against all of the plant pathogenic fungi
CCCCSC(=N)NN=Cc1ccc(F)cc1 [Compound 15]	93%				
CCCCCCCCOc1ccc(C(C)=NNC(=N)SC)cc1 [Compound 40]	85%				
CCCCSC(=N)NN=C(C)c1ccc(OC)cc1 [Compound 36]	95%				
CCCCCCCCCCCCOc1ccc(C=CC(C)=NNC(=N)SC)cc1 [Compound 46]	77%	> 11.7	85.2 µg/mL (≈ 204 µM)	> 1000 µg/mL	virucidal index [4]: > 31.6; EC50 [4]: 31.6 µg/mL (≈ 75.7 µM)
CSC(=N)NN=Cc1ccccc1Cl [Compound 3]	96%				
CCCCCCCCOc1ccc(C=CC(C)=NNC(=N)SC)cc1OC [Compound 47]	96%				
CCCC(=NNC(=N)SC)c1ccc(Cl)cc1 [Compound 27]	100%				
COc1ccc(C(C)=NNC(=N)SC)cc1 [Compound 35]	100%	7.0	14.2 µg/mL (≈ 59.8 µM)	99.4 µg/mL (≈ 419 µM)	
CCC(=NNC(=N)SC)c1ccc(Cl)cc1 [Compound 26]	100%				
CSC(=N)NN=Cc1cccc(Br)c1 [Compound 16]	100%				
CSC(=N)NN=Cc1ccc(Cl)cc1 [Compound 6, 4'-Chlorobenzaldehyde-S-methylisothiosemicarbazone Hydrochloride]	100%				
CCCC(=NNC(=N)SC)c1ccccc1 [Compound 23]	93%				
CN=C(NN=Cc1ccc(Cl)cc1)SC [Compound 7]	75%				
CN=C(NN=Cc1cccc(Cl)c1)SC [Compound 5, 3'-Chlorobenzaldehyde-S-methyl-4-N-methylisothiosemicarbazone Hydrochloride]	93%				
CSC(=N)NN=C(C)c1ccc(Cl)cc1Cl [Compound 29]	90%	7.7	23.2 µg/mL (≈ 84 µM)	180 µg/mL (≈ 652 µM)	virucidal index [4]: 1.8; EC50 [4]: 100 µg/mL (≈ 362 µM)

Compound	pest or weed control at 400 ppm [1]	virus proliferation-inhibiting index [2]	IC50 [2]	CC50 at 48 h (in vitro)	further results
CCCCSC(=N)NN=C(C)c1ccc(Cl)c(Cl)c1Cl [Compound 32]	96%				
CSC(=N)NN=Cc1ccc(C)cc1 [Compound 17]	100%				
CCCC(=NNC(=NC)SC)c1ccc(Cl)cc1 [Compound 28]	94%	12.6	63 µg/mL (≈ 222 µM)	794 µg/mL (≈ 2800 µM)	
CSC(=N)NN=Cc1ccc(Cl)c(Cl)c1 [Compound 11, 3',4'-Dichlorobenzaldehyde-S-methylisothiosemicarbazone Hydrochloride]	98%	33.2	21.3 µg/mL	707 µg/mL	virucidal index [4]: 15.2; EC50 [4]: 46.4 µg/mL
CCCCCCOc1ccc(C=CC(C)=NNC(=N)SC)cc1 [Compound 45]	96%				
CCCCSC(=N)NN=Cc1ccc(Cl)cc1Cl [Compound 9, 2',4'-Dichlorobenzaldehyde-S-butylisothiosemicarbazone Hydrochloride]	100%	5.5	115 µg/mL	632 µg/mL	virucidal index [4]: 19.9; EC50 [4]: 31.6 µg/mL
CCCCOc1ccc(C=CC(C)=NNC(=N)SC)cc1 [Compound 44]	100%				
CSC(=N)NN=Cc1cc(Cl)cc(Cl)c1O [Compound 14]	98%	> 66.7	15 µg/mL (≈ 53.9 µM)	> 1000 µg/mL	
N=C(NN=Cc1ccccc1)SCc1ccccc1 [Compound 2, Benzaldehyde-S-benzylisothiosemicarbazone Hydrochloride]	85%				
CSC(=N)NN=C(C)c1ccc(Cl)c(Cl)c1Cl [Compound 31]	89%	16.6	21.3 µg/mL (≈ 68.6 µM)	354 µg/mL (≈ 1140 µM)	
CC(=NNC(=N)SCc1ccccc1)c1ccccc1 [Compound 22]	90%				
CSC(=N)NN=C(C)c1ccc(C)cc1 [Compound 33]	97%	20.0	50 µg/mL (≈ 226 µM)	1000 µg/mL (≈ 4520 µM)	
CSC(=N)NN=Cc1c(Cl)cccc1Cl [Compound 12]	100%				
CN=C(NN=Cc1ccc(Cl)c(Cl)c1)SC [Compound 10]	88%				MIC Value in Literature (Pyricularia oryzae): 12.5 µg/mL (≈ 45.3 µM); Protective Value [5]: 67%; controlling effect against rice blast [5]: low protective values
CCOc1ccc(C(C)=NNC(=N)SC)cc1 [Compound 37]	89%	7.1	12.5 µg/mL (≈ 49.7 µM)	88.8 µg/mL (≈ 353 µM)	
CSC(=N)NN=C(C)c1cccc(Cl)c1 [Compound 24]	89%	28.3	25 µg/mL (≈ 103 µM)	708 µg/mL (≈ 2930 µM)	virucidal index [4]: 3.3; EC50 [4]: 215 µg/mL (≈ 889 µM)
CSC(=N)NN=Cc1cc(Cl)cc(Cl)c1 [Compound 13]	100%	14.0	50 µg/mL (≈ 191 µM)	700 µg/mL (≈ 2670 µM)	
CCCCOc1ccc(C=NNC(=N)SC)cc1 [Compound 20]	99%				Protective Value [5]: 100%; controlling effect against rice blast [5]: very excellent controlling effects; effect against plant pathogenic fungi in vitro (plant pathogenic fungi): never been observed to have effects of inhibiting proliferation of any of the pathogenic fungi
CSC(=N)NN=C(C)c1ccc(Cl)c(Cl)c1 [Compound 30]	88%				MIC Value in Literature (Pyricularia oryzae): 12.5 µg/mL (≈ 45.3 µM); Protective Value [5]: 66%; controlling effect against rice blast [5]: low protective values
CSC(=N)NN=C(C)C=Cc1ccc(Cl)cc1 [Compound 42]	88%	7.1	100 µg/mL (≈ 373 µM)	710 µg/mL (≈ 2650 µM)	virucidal index [4]: 4.2; EC50 [4]: 170 µg/mL (≈ 635 µM)
CCCCCCCCCCOc1ccc(C(C)=NNC(=N)SC)cc1 [Compound 41]	94%	< 5.0	> 200 µg/mL	1000 µg/mL (≈ 2750 µM)	virucidal index [4]: 6.9; EC50 [4]: 145 µg/mL (≈ 399 µM)
CSC(=N)NN=Cc1ccc(Cl)cc1Cl [Compound 8]	97%	35.7	19.8 µg/mL (≈ 75.5 µM)	706 µg/mL (≈ 2690 µM)	virucidal index [4]: 15.2; EC50 [4]: 46.4 µg/mL (≈ 177 µM)
CCOc1ccc(C=CC(C)=NNC(=N)SC)cc1 [Compound 43]	100%	7.1	141 µg/mL (≈ 508 µM)	> 1000 µg/mL	Protective Value [5]: 97%; controlling effect against rice blast [5]: very excellent controlling effects; virucidal index [4]: 3.2; EC50 [4]: 316 µg/mL (≈ 1140 µM); effect against plant pathogenic fungi in vitro (plant pathogenic fungi): never been observed to have effects of inhibiting proliferation of any of the pathogenic fungi; also recorded: inactive against all of the plant pathogenic fungi
CCCCSC(=N)NN=Cc1ccc(OCC)cc1 [Compound 19]	100%	> 25.2	39.7 µg/mL (≈ 142 µM)	> 1000 µg/mL	Protective Value [5]: 93%; controlling effect against rice blast [5]: very excellent controlling effects; virucidal index [4]: 3.2; EC50 [4]: 316 µg/mL (≈ 1130 µM); effect against plant pathogenic fungi in vitro (plant pathogenic fungi): never been observed to have effects of inhibiting proliferation of any of the pathogenic fungi

Source: patent US4598095A (priority 1982, dated 1986)
